Results published in ChEMBL document CHEMBL1132459, “Design of MKC-442 (emivirine) analogues with improved activity against drug-resistant HIV mutants” (J Med Chem, 1999).

Tests used:
Conditions in all cases: Homo sapiens
HeLa [1] = experiment: Compound was tested for its cytotoxicity depending on the viability of mock-infected cells; format: functional
HeLa [2] = experiment: Compound was tested for its inhibition of HIV-1 induced focus formation in MAGI-CCR5 cells in strains like IIIB; format: functional, cell-based
HeLa [3] = experiment: Compound was tested for its inhibition of HIV-1 induced focus formation in MAGI-CCR5 cells in strains like IIIB-R(Y181C); format: functional, cell-based
HeLa [4] = experiment: Compound was tested for its inhibition of HIV-1 induced focus formation in MAGI-CCR5 cells in strains like NL4-3; format: functional, cell-based
HeLa [5] = experiment: Compound was tested for its inhibition of HIV-1 induced focus formation in MAGI-CCR5 cells in strains like NL4-3K103N; format: functional, cell-based

SMILES | CC50 (HeLa [1]) | EC50 (HeLa [2]) | EC50 (HeLa [3]) | EC50 (HeLa [4]) | EC50 (HeLa [5])
CCOCn1c(SC2CCCCC2)c(C(C)C)c(=O)[nH]c1=O | 74800 nM | 3 nM | 270 nM | 3 nM | 250 nM
CCOCn1c(Cc2ccccc2)c(C(C)C)c(=O)[nH]c1=O [EMIVIRINE] | > 100000 nM | 4 nM | 13400 nM | 1 nM | 1260 nM
CCOCn1c(Cc2cc(C)cc(C)c2)c(C(C)C)c(=O)[nH]c1=O | 52500 nM | 1 nM | 180 nM | 1 nM | 40 nM
